# Results: patent publication US7189680B2, “5-halo-6-aryl[1,2,4]triazolo[1,5-a]pyrimidin-7-amines” (Bayer Cropscience AG, priority 2001, dated 2007)
# Experiment: logP determination by HPLC (EEC directive 79/831 Annex V. A8)
# Type: physicochemical
# Details: HPLC gradient method, acetonitrile/0.1% aqueous phosphoric acid; Table 1
# Experimental: *) The logP values were determined in accordance with EEC directive 79/831 Annex V. A8 by HPLC (gradient method, acetonitrile/0.1% aqueous phosphoric acid)
row,Structure (SMILES),logP*
1,CC(C)CN(N)c1c(-c2cccc(C(F)(F)F)c2Cl)c(Cl)nc2ncnn12 [Example 163],3.45
2,CC(C)CN(N)c1c(-c2c(F)cc(F)cc2F)c(Cl)nc2ncnn12.Cl [Example 153],2.88
3,Fc1cc(F)c(-c2c(Cl)nc3ncnn3c2NNCCN2CCOCC2)c(F)c1 [Example 54],1.14
4,Fc1cc(F)c(-c2c(Cl)nc3ncnn3c2NNCC(F)(F)C(F)F)c(F)c1 [Example 29],2.58
5,CC(C)=NN(CC(C)C)c1c(-c2c(F)cc(F)cc2F)c(Cl)nc2ncnn12 [Example 158],3.63
6,CON(C)c1c(-c2c(F)c(F)c(F)c(F)c2F)c(Cl)nc2ncnn12 [Example 77],3.06
7,CC(C)CONc1c(-c2c(F)c(F)c(F)c(F)c2F)c(Cl)nc2ncnn12 [Example 69],3.42
8,CCOC(=O)NN(CC(C)C)c1c(-c2c(F)cc(F)cc2F)c(Cl)nc2ncnn12 [Example 168],2.99
9,NN(CC1CCC1)c1c(-c2c(F)cccc2Cl)c(Cl)nc2ncnn12 [Example 173],3.07
10,NN(CC1CC1(Cl)Cl)c1c(-c2c(F)cccc2Cl)c(Cl)nc2ncnn12 (stereo not shown) [Example 171],3.11
11,Fc1cc(F)c(-c2c(Cl)nc3ncnn3c2NNCC(F)(F)F)c(F)c1 [Example 19],2.47
12,CC(C)CN(N)c1c(-c2cc(C(F)(F)F)ccc2Cl)c(Cl)nc2ncnn12 [Example 140],3.51
13,NN(c1c(-c2c(Cl)cccc2Cl)c(Cl)nc2ncnn12)C1CCCC1 [Example 161],3.37
14,CC(NNc1c(-c2c(F)cc(F)cc2F)c(Cl)nc2ncnn12)C1CC1 (stereo not shown) [Example 25],3.02
15,NN(CCN1CCOCC1)c1c(-c2c(F)cc(F)cc2F)c(Cl)nc2ncnn12 [Example 129],1.1
16,CC(C)CN(N)c1c(-c2c(Cl)cccc2Cl)c(Cl)nc2ncnn12 [Example 155],3.17
17,Fc1c(F)c(F)c(-c2c(Cl)nc3ncnn3c2NOCc2ccc(C(F)(F)F)cc2)c(F)c1F [Example 115],3.77
18,CN(O)c1c(-c2c(F)cc(F)cc2F)c(Cl)nc2ncnn12 [Example 123],1.99
19,CC(C)CN(N)c1c(-c2c(Cl)cc(C(F)(F)F)cc2Cl)c(Cl)nc2ncnn12 [Example 136],3.85
20,NN(CC1CC1)c1c(-c2c(Cl)cccc2Cl)c(Cl)nc2ncnn12 [Example 164],2.8

row,Structure (SMILES),logP*
1,CCC(C)N(N)c1c(-c2c(F)cc(F)cc2F)c(Cl)nc2ncnn12 (stereo not shown) [Example 139],2.93
2,NN(CC1CC1(Cl)Cl)c1c(-c2c(F)cc(F)cc2F)c(Cl)nc2ncnn12 (stereo not shown) [Example 166],3.11
3,NN(c1c(-c2c(F)cc(F)cc2F)c(Cl)nc2ncnn12)C1CCCCCC1 [Example 141],3.66
4,NN(c1c(-c2c(F)cc(F)cc2F)c(Cl)nc2ncnn12)C1CCCC1 [Example 130],3.07
5,NN(CC1CCCO1)c1c(-c2c(F)cc(F)cc2F)c(Cl)nc2ncnn12 (stereo not shown) [Example 127],2.55
6,Clc1cccc(Cl)c1-c1c(Cl)nc2ncnn2c1NNC1CCCC1 [Example 160],3.21
7,Fc1c(F)c(F)c(-c2c(Cl)nc3ncnn3c2NOCc2ccc(Cl)cc2)c(F)c1F [Example 71],3.62
8,NN(CC1CC1)c1c(-c2c(F)cc(F)cc2F)c(Cl)nc2ncnn12 [Example 159],2.66
9,CC(C)ONc1c(-c2c(F)c(F)c(F)c(F)c2F)c(Cl)nc2ncnn12 [Example 122],3.04
10,CC(=O)NN(CC(C)C)c1c(-c2c(F)cc(F)cc2F)c(Cl)nc2ncnn12 [Example 157],2.25
11,Fc1cc(F)c(-c2c(Cl)nc3ncnn3c2NOC2CCCC2)c(F)c1 [Example 14],2.94
12,CCONc1c(-c2c(F)c(F)c(F)c(F)c2F)c(Cl)nc2ncnn12 [Example 70],2.73
13,CC1(NNc2c(-c3c(F)cc(F)cc3F)c(Cl)nc3ncnn23)CCCCC1 [Example 27],3.68
14,CC(C)CN(N)c1c(-c2c(Cl)c(F)cc(C(F)(F)F)c2Cl)c(Cl)nc2ncnn12 [Example 126],2.58
15,Fc1cc(F)c(-c2c(Cl)nc3ncnn3c2NNCC2CCCO2)c(F)c1 (stereo not shown) [Example 52],2.44
16,CONc1c(-c2c(F)c(F)c(F)c(F)c2F)c(Cl)nc2ncnn12 [Example 121],2.53
17,C#CCN(N)c1c(-c2c(F)cc(F)cc2F)c(Cl)nc2ncnn12 [Example 142],2.22
18,CON(C)c1c(-c2c(F)cc(F)cc2F)c(Cl)nc2ncnn12 [Example 16],2.63
19,Fc1ccccc1-c1c(Cl)nc2ncnn2c1NOC1CCCCO1 (stereo not shown) [Example 66],2.46

# Second part, the molecule after the results:
row,logP*,Structure (SMILES)
1,2.58,CC(C)(C)ONc1c(-c2ccccc2F)c(Cl)nc2ncnn12 [Example 65]
2,3.2,Fc1cccc(F)c1-c1c(Cl)nc2ncnn2c1NOCc1c(Cl)cccc1Cl [Example 110]
3,2.48,C=CCONc1c(-c2c(F)cc(F)cc2F)c(Cl)nc2ncnn12 [Example 42]
4,3.32,Fc1cc(F)c(-c2c(Cl)nc3ncnn3c2NOCc2c(Cl)cccc2Cl)c(F)c1 [Example 86]
5,3.34,Fc1ccccc1-c1c(Cl)nc2ncnn2c1NOCc1cccc(C(F)(F)F)c1 [Example 99]
6,3.31,Fc1ccccc1-c1c(Cl)nc2ncnn2c1NOCc1ccc(C(F)(F)F)cc1 [Example 58]
7,2.79,CC(C)CONc1c(-c2ccccc2F)c(Cl)nc2ncnn12 [Example 56]
8,3.37,Fc1c(F)c(F)c(-c2c(Cl)nc3ncnn3c2NOCc2ccccc2)c(F)c1F [Example 112]
9,3,CC(C)CONc1c(-c2c(F)cc(F)cc2F)c(Cl)nc2ncnn12 [Example 79]
10,2.33,CCONc1c(-c2c(F)cc(F)cc2F)c(Cl)nc2ncnn12 [Example 40]
11,2.8,Fc1cccc(F)c1-c1c(Cl)nc2ncnn2c1NOCc1ccccc1 [Example 103]
12,3.07,Fc1cccc(F)c1-c1c(Cl)nc2ncnn2c1NOCc1ccccc1Cl [Example 106]
13,2.85,CCCCONc1c(-c2ccccc2F)c(Cl)nc2ncnn12 [Example 100]
14,2.28,C=CCONc1c(-c2c(F)cccc2F)c(Cl)nc2ncnn12 [Example 50]
15,2.83,CCCCONc1c(-c2c(F)cccc2F)c(Cl)nc2ncnn12 [Example 109]
16,3.69,Fc1ccccc1-c1c(Cl)nc2ncnn2c1NOCc1cc(Cl)cc(Cl)c1 [Example 96]
17,3.3,Fc1ccccc1-c1c(Cl)nc2ncnn2c1NOCc1c(Cl)cccc1Cl [Example 101]
18,2.43,Fc1cccc(F)c1-c1c(Cl)nc2ncnn2c1NOC1CCCCO1 (stereo not shown) [Example 51]
19,2.83,Fc1ccccc1-c1c(Cl)nc2ncnn2c1NOCc1ccccc1 [Example 95]
20,2.94,CC(C)CN(N)c1c(-c2c(F)cccc2Cl)c(Cl)nc2ncnn12 [Example 138]
21,3.06,Fc1ccccc1-c1c(Cl)nc2ncnn2c1NOCc1ccccc1Cl [Example 59]

row,logP*,Structure (SMILES)
1,2.13,CNN(C)c1c(-c2ccccc2F)c(Cl)nc2ncnn12 [Example 88]
2,3.24,CC(C)(C)ONc1c(-c2c(F)c(F)c(F)c(F)c2F)c(Cl)nc2ncnn12 [Example 75]
3,2.86,CC(C)(C)NNc1c(-c2c(F)cc(F)cc2F)c(Cl)nc2ncnn12 [Example 21]
4,2.09,CC(C)(O)CNNc1c(-c2c(F)cc(F)cc2F)c(Cl)nc2ncnn12 [Example 53]
5,3.6,Fc1ccccc1-c1c(Cl)nc2ncnn2c1NOCc1ccc(Cl)cc1Cl [Example 97]
6,3.01,CC(C)ON(C)c1c(-c2c(F)cccc2F)c(Cl)nc2ncnn12 [Example 34]
7,3.22,Fc1cc(F)c(-c2c(Cl)nc3ncnn3c2NOCc2ccccc2Cl)c(F)c1 [Example 81]
8,3.37,CCC(C)NNc1c(-c2cccc(C(F)(F)F)c2Cl)c(Cl)nc2ncnn12 (stereo not shown) [Example 145]
9,2.26,CN(C)Nc1c(-c2ccccc2F)c(Cl)nc2ncnn12 [Example 87]
10,2.18,CCONc1c(-c2c(F)cccc2F)c(Cl)nc2ncnn12 [Example 102]
11,2.13,CCONc1c(-c2ccccc2F)c(Cl)nc2ncnn12 [Example 57]
12,2.33,CON(C)c1c(-c2ccccc2F)c(Cl)nc2ncnn12 [Example 68]
13,2.86,CCC(C)ONc1c(-c2c(F)cc(F)cc2F)c(Cl)nc2ncnn12 (stereo not shown) [Example 41]
14,3.14,CCC(C)NNc1c(-c2c(Cl)cccc2Cl)c(Cl)nc2ncnn12 (stereo not shown) [Example 154]
15,2.82,Fc1ccc(CONc2c(-c3ccccc3F)c(Cl)nc3ncnn23)cc1 [Example 62]
16,3.08,CC(C)N(N)c1c(-c2ccc(C(F)(F)F)cc2F)c(Cl)nc2ncnn12 [Example 134]
17,1.82,N#CCCNNc1c(-c2ccccc2F)c(Cl)nc2ncnn12 [Example 94]
18,2.75,CC(C)(C)ONc1c(-c2c(F)cc(F)cc2F)c(Cl)nc2ncnn12 [Example 43]
19,2.86,Fc1ccc(CONc2c(-c3c(F)cccc3F)c(Cl)nc3ncnn23)cc1 [Example 107]
20,2.27,C=CCONc1c(-c2ccccc2F)c(Cl)nc2ncnn12 [Example 64]
21,3.43,CC(C)CN(N)c1c(-c2ccc(C(F)(F)F)cc2F)c(Cl)nc2ncnn12 [Example 135]

# Same assay, conditions: HPLC gradient method, acetonitrile/0.1% aqueous phosphoric acid; Table 1; read-out: logP*
row,chromatographic logP,Structure (SMILES)
1,2.48,C=CCNNc1c(-c2c(F)cc(F)cc2F)c(Cl)nc2ncnn12 [Example 24]

# Same assay, conditions: HPLC; preparation examples; read-out: HPLC: logP
row,chromatographic logP,Structure (SMILES)
1,4.74,"C[C@H](N(SC(F)(Cl)Cl)c1c(-c2c(F)cc(F)cc2F)c(Cl)nc2ncnn12)C(F)(F)F [Example 3, 5-chloro-7-{{[dichloro(fluoro)methyl]sulphanyl}[(1S)-2,2,2-trifluoro-1-methylethyl]amino}-6-(2,4,6-trifluorophenyl)[1,2,4]triazolo[1,5-a]pyrimidine]"

# Same assay, conditions: Table 2, carbamates of formula (VIII)
row,logP,Structure (SMILES)
1,2.38,CCOC(=O)N(CC(C)C)OC [Example 178]
2,2.06,C=C(C)CN(OC)C(=O)OCC [Example 179]
